In one assay the target is Rhesus PDE2A3 (Macaca mulatta, UniProt B3VTJ2). The experiment in a line: IMAP fluorescence polarization assay, rhesus PDE2A3 lysate from transfected AD293 cells. The format is biochemical, rhesus macaque. The settings on record: FAM-labeled cAMP 50 nM, activator cGMP 1 uM; read-out: Rhesus PDE2 Ki. The protocol: The activity of the compounds in accordance with the present invention as PDE2 inhibitors may be readily determined using a fluorescence polarization (FP) methodology (Huang, W., et al., J. Biomol Screen, 2002, 7: 215).
Chain of Rhesus PDE2A3 (B3VTJ2 1-941): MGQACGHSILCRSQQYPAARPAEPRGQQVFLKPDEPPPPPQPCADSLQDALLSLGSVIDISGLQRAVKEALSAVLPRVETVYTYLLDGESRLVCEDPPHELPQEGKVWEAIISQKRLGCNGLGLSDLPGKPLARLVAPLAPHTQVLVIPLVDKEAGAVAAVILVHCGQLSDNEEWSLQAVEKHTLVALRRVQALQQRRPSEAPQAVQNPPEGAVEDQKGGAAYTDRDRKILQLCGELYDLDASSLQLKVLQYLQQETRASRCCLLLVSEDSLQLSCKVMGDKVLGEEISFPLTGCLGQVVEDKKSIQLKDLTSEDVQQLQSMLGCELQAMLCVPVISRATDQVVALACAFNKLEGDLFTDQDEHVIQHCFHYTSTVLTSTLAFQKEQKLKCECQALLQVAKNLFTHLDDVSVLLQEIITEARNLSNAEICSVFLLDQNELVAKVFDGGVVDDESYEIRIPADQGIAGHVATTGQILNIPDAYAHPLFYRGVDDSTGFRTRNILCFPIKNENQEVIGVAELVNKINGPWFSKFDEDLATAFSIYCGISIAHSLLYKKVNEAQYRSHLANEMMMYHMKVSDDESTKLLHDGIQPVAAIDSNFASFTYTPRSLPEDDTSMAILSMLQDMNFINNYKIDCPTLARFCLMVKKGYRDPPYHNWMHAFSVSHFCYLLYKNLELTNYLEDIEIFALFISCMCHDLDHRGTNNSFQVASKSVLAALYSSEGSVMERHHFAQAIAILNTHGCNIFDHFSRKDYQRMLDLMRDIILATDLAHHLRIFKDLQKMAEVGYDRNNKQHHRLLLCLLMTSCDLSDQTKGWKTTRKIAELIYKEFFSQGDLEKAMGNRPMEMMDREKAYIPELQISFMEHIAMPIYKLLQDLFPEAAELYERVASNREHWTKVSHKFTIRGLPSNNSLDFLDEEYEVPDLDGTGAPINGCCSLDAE
In a typical experiment the PDE2 inhibitory activity of the compounds of the present invention was determined in accordance with the following experimental method. Rhesus PDE2A3 was amplified from rhesus macaque brain cDNA (Biochain Institute, Hayward, Calif.) using primers based on human PDE2A sequence (accession NM_002599.3) where the forward primer containing a Kozak consensus was 5′-[…]-3′ and the reverse primer was 5′-[…]-3′. Amplification with Easy-A High-Fidelity PCR cloning enzyme (Stratagene, La Jolla, Calif.) was 95° C. for 2 minutes followed by thirty three cycles of 95° C. for 40 seconds, 52° C. for 30 seconds, and 72° C. for 2 minutes 48 seconds. Final extension was 72° C. for 7 minutes. The PCR product was TA cloned into pcDNA3.3-TOPO (Invitrogen, Carlsbad, Calif.) according to standard protocol. A consensus sequence was developed from multiple clones and then deposited into GenBank (EU812167). AD293 cells (Stratagene, La Jolla, Calif.) with 70-80% confluency were transiently transfected with rhesus PDE2A3/pcDNA3.3-TOPO using Lipofectamine 2000 according to manufacturer specifications (Invitrogen, Carlsbad, Calif.). Cells were harvested 48 hours post-transfection and lysed by sonication (setting 3, 10×5 sec pulses) in a buffer containing 20 mM HEPES pH 7.4, 1 mM EDTA and Complete Protease Inhibitor Cocktail Tablets (Roche, Indianapolis, Ind.). Lysate was collected by centrifugation at 75,000×g for 20 minutes at 4° C. and supernatant utilized for evaluation of PDE2 activity. The fluorescence polarization assay for cyclic nucleotide phosphodiesterases was performed using an IMAP® FP kit supplied by Molecular Devices, Sunnyvale, Calif. (product # R8139). […] Assays were performed at room temperature in 384-well microtiter plates with an incubation volume of 20.2 μL. Solutions of test compounds were prepared in DMSO and serially diluted with DMSO to yield 8 μL of each of 10 solutions differing by 3-fold in concentration, at 32 serial dilutions per plate. […] 0% of inhibition is determined by using DMSO (1% final concentrations).
A Labcyte Echo 555 (Labcyte, Sunnyvale, Calif.) is used to dispense 200 nL from each well of the titration plate to the 384 well assay plate. Ten microliters of a solution of enzyme (1/2000 final dilution from aliquots; sufficient to produce 20% substrate conversion) was added to the assay plate. Next 10 uL of a separate solution of the substrate FAM-labeled cAMP (50 nM final concentration product # R7506 from Molecular Devices) and the activator cGMP (1 uM final concentration), prepared in the assay buffer (10 mM Tris HCl, pH 7.2, 10 mM MgCl2, 0.05% NaN3 0.01% Tween-20, and 1 mM DTT) was added to the assay plate and shaken to mix. The reaction is allowed to proceed at room temperature for 60 minutes. A binding solution is then made from the kit components, comprised of 80% Solution A, 20% Solution B and binding reagent at a volume of 1/600 the total binding solution. The enzymatic reaction is stopped by addition of 60 μL of the binding solution to each well of the assay plates and the plates are sealed and shaken for 30 seconds. The plate was incubated at room temperature for at least one hour prior to determining the fluorescence polarization (FP). The parallel and perpendicular fluorescence of each well of the plate was measured using a Tecan Genios Pro plate reader (Tecan, Switzerland) or Perkin Elmer EnVision™ plate reader (Waltham, Mass.). Fluorescence polarization (mP) was calculated from the parallel (S) and perpendicular (P) fluorescence of each sample well and the analogous values for the median control well, containing only substrate (So and Po), using the following equation: Polarization (mP)=1000*(S/So−P/Po)/(S/So+P/Po).
(Polarisation of emitted light reports the rotation of a fluorescent probe.)

Another assay concerns the target human PDE2A1 (Homo sapiens (Human), UniProt O00408). The experiment in a line: IMAP fluorescence polarization assay, human PDE2A1 (PDE selectivity panel). The format is biochemical. To be noted: FAM cAMP 50 nM with 1000 nM cGMP. In outline: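 GST-tagged human PDE2A1 from insect cells; enzyme set to ~20% conversion of 50 nM FAM-cAMP with 1000 nM cGMP, 60 min at room temperature in pH 7.2 Tris/MgCl2/DTT buffer, ten 3-fold compound dilutions. IMAP FP read, apparent Ki derived using apparent KM 10,000 nM.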

pKi: −log10 of the molar value.

Chain of human PDE2A1 (O00408 other isoform, or with tags, fused parts or gaps): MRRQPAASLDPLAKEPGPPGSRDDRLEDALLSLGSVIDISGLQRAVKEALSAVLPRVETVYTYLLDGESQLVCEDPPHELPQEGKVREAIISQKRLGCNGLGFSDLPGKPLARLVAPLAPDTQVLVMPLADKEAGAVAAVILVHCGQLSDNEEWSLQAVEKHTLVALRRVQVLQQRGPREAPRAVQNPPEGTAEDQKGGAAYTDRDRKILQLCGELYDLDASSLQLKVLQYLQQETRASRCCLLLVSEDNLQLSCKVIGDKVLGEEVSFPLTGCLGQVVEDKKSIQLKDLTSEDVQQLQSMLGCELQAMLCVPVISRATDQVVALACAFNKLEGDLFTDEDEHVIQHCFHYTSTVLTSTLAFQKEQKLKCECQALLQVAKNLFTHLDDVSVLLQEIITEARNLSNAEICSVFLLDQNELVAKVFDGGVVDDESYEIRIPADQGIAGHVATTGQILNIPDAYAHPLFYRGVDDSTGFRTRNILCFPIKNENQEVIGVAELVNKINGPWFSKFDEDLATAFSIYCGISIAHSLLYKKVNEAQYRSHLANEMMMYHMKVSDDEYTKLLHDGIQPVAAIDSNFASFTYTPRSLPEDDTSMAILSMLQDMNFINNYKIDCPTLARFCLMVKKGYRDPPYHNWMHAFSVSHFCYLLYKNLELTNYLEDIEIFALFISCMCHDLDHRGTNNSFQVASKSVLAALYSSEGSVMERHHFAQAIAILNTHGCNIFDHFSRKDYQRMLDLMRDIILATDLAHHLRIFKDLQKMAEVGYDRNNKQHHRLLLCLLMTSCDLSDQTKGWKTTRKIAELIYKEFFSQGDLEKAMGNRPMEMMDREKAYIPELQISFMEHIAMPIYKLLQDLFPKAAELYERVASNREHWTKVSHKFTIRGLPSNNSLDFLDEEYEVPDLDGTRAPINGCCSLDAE

In the case of `Cc1nc(-c2nnc(C(C)c3ccc(C(F)(F)F)cc3)[nH]2)cc(=O)[nH]1` (stereo not drawn) [Example 60, 2-Methyl-6-(5-(1-(4-(trifluoromethyl)phenyl)ethyl)-4H-1,2,4-triazol-3-yl)pyrimidin-4(3H)-one], the pKi on Rhesus PDE2A3 is 6.69. As for `Cc1nc(-c2cn(C(C)c3ccc(C(F)(F)F)cc3)nn2)cc(=O)[nH]1` (single isomer, unassigned) [Example 18, (S)- or (R)-2-methyl-6-(1-(1-(4-(trifluoromethyl)phenyl)ethyl)-1H-1,2,3-triazol-4-yl) pyrimidin-4(3H)-one], the values for the negative logarithm of the Ki (pKi) on human PDE2A1 and on Rhesus PDE2A3 were 7.33 and 7.26, respectively.

Consider `Cc1nc(-c2cn(C(C)c3ccc(C(F)(F)F)cc3F)nn2)cc(=O)[nH]1` (single isomer, unassigned) [Example 28, (S)- or (R)-6-(1-(1-(2-fluoro-4-(trifluoromethyl)phenyl)ethyl)-1H-1,2,3-triazol-4-yl)-2-methylpyrimidin-4(3H)-one], for which the negative-log Ki (pKi) at human PDE2A1 was 8.15; on Rhesus PDE2A3, 8.05.

With `Cc1nc(-c2cn(C(C)c3ccc(OC(F)(F)F)cc3F)nn2)cc(=O)[nH]1` (stereo not drawn) [Example 13, 6-(1-(1-(2-fluoro-4-(trifluoromethoxy)phenyl)ethyl)-1H-1,2,3-triazol-4-yl)-2-methylpyrimidin-4(3H)-one], the pKi on human PDE2A1 is 7.11; at Rhesus PDE2A3, 7.00. Taken in the same sequence, the figures for `Cc1nc(-c2cn(C(C)c3ccc(S(F)(F)(F)(F)F)cc3)nn2)cc(=O)[nH]1` (stereo not drawn) [Example 16, 2-methyl-6-(1-(1-(4-(pentafluorosulfanyl)phenyl)ethyl)-1H-1,2,3-triazol-4-yl)pyrimidin-4(3H)-one] were 7.42 and 7.40. In the case of `Cc1nc(-c2nnn3c2CCC[C@]3(C)c2ccc(C(F)(F)F)cc2Cl)cc(=O)[nH]1` (single isomer, unassigned) [Example 87], the negative-log Ki (pKi) on human PDE2A1 was 8.92; on Rhesus PDE2A3, 8.74. Consider `Cc1nc(-c2cn(C(C)c3ccc(OC(F)(F)F)cc3)nn2)cc(=O)[nH]1` (stereo not drawn) [Example 11, 2-methyl-6-(1-(1-(4-(trifluoromethoxy)phenyl)ethyl)-1H-1,2,3-triazol-4-yl) pyrimidin-4(3H)-one], for which the pKi on human PDE2A1 is 7.25; on Rhesus PDE2A3, 7.30. For `CCc1ccc(C(C)(C)n2cc(-c3cc(=O)[nH]c(C)n3)nn2)c(Cl)c1` [Example 32, 6-(1-(2-(2-chloro-4-ethylphenyl)propan-2-yl)-1H-1,2,3-triazol-4-yl)-2-methylpyrimidin-4(3H)-one], the pKi is 8.80 at human PDE2A1 and 8.68 on Rhesus PDE2A3. Taken in the same sequence, the figures for `COc1ccc(Cc2nc(-c3nnn4c3CCC[C@]4(C)c3ccc(C(F)(F)F)cc3F)cc(=O)[nH]2)cc1` (single isomer, unassigned) [Example 89] were 9.40 and 9.20. Taken in the same sequence, the figures for `Cc1nc(-c2cn(C(C)c3ccc(C(F)(F)F)c(F)c3F)nn2)cc(=O)[nH]1` (single isomer, unassigned) [Example 21, (R)- or (S)-6-(1-(1-(2,3-difluoro-4-(trifluoromethyl)phenyl)ethyl)-1H-1,2,3-triazol-4-yl)-2-methylpyrimidin-4(3H)-one] were 8.59 and 8.41.

`Cc1nc(-c2nnc3n2CCC[C@]3(C)c2ccc(C(F)(F)F)cc2F)cc(=O)[nH]1` (single isomer, unassigned) [Example 81]: the results for the pKi on human PDE2A1 and at Rhesus PDE2A3 were 9.03 and 8.77, respectively. Taken in the same sequence, the figures for `CC(c1ccc(C(F)(F)F)cc1F)n1cc(-c2cc(=O)[nH]c(CC3CC3)n2)nn1` (stereo not drawn) [Example 14, 2-(cyclopropylmethyl)-6-(1-(1-(2-fluoro-4-(trifluoromethyl)phenyl)ethyl)-1H-1,2,3-triazol-4-yl)pyrimidin-4(3H)-one] were 7.68 and 7.60. `Cc1nc(-c2cn(C(C)c3ccc(C(F)(F)F)cc3)nn2)cc(=O)[nH]1` (single isomer, unassigned) [Example 17, (R)- or (S)-2-methyl-6-(1-(1-(4-(trifluoromethyl)phenyl)ethyl)-1H-1,2,3-triazol-4-yl) pyrimidin-4(3H)-one]: the values for the pKi on human PDE2A1 and on Rhesus PDE2A3 were 7.44 and 7.35, respectively. As for `CC(c1ccc(C(F)(F)F)cc1F)n1cc(-c2cc(=O)[nH]c(Cc3ccccc3)n2)nn1` (stereo not drawn) [Example 12], the pKi at human PDE2A1 was 8.08; at Rhesus PDE2A3, 8.05. Taken in the same sequence, the figures for `Cc1nc(-c2nnn3c2CCC3(C)c2ccc(C(F)(F)F)cc2F)cc(=O)[nH]1` (single isomer, unassigned) [Example 97, (R)- or (S)-6-(6-(2-Fluoro-4-(trifluoromethyl)phenyl)-6-methyl-5,6-dihydro-4H-pyrolo[1,2-c][1,2,3]triazol-3-yl)-2-methylpyrimidin-4(3H)-one] were 8.82 and 8.89.

With `CC/C=C/c1nc(-c2cn(C(C)c3ccc(C(F)(F)F)cc3F)nn2)cc(=O)[nH]1` (stereo not drawn) [Example 15, (E)-2-(but-1-enyl)-6-(1-(1-(2-fluoro-4-(trifluoromethyl)phenyl)ethyl)-1H-1,2,3-triazol-4-yl)pyrimidin-4(3H)-one], the negative logarithm of the Ki (pKi) on human PDE2A1 is 8.33; on Rhesus PDE2A3, 8.19.

`CCc1ccc(C(C)n2cc(-c3cc(=O)[nH]c(C)n3)nn2)c(Cl)c1` (single isomer, unassigned) [Example 19, (R)- or (S)-6-(1-(1-(2-chloro-4-ethylphenyl)ethyl)-1H-1,2,3-triazol-4-yl)-2-methylpyrimidin-4(3H)-one]: the values for the pKi on human PDE2A1 and on Rhesus PDE2A3 were 8.68 and 8.47, respectively. The like results for `Cc1nc(-c2cn(C3(c4ccc(C(F)(F)F)cc4Cl)CCC3)nn2)cc(=O)[nH]1` [Example 29, 6-(1-(1-(2-Chloro-4-(trifluoromethyl)phenyl)cyclobutyl)-1H-1,2,3-triazol-4-yl)-2-methylpyrimidin-4(3H)-one] were, in that order, 9.28 and 9.20. `Cc1nc(-c2nnn3c2CCCC3(C)c2ccc(C(F)(F)F)cc2F)cc(=O)[nH]1` (single isomer, unassigned) [Example 59, (S)- or (R)-6-(7-(2-fluoro-4-(trifluoromethyl)phenyl)-7-methyl-4,5,6,7-tetrahydro-[1,2,3]triazolo[1,5-a]pyridin-3-yl)-2-methylpyrimidin-4(3H)-one]: the pKi on human PDE2A1 is 6.75. Take `CCC1(c2ccc(C(F)(F)F)cc2)CCCc2c(-c3cc(=O)[nH]c(C)n3)nnn21` (single isomer, unassigned) [Example 57, (S)- or (R)-6-(7-ethyl-7-(4-(trifluoromethyl)phenyl)-4,5,6,7-tetrahydro-[1,2,3]triazolo[1,5-a]pyridin-3-yl)-2-methylpyrimidin-4(3H)-one]: on human PDE2A1, the pKi is 7.54. For the compound `Cc1nc(-c2cnn(C(C)c3ccc(C(F)(F)F)cc3F)n2)cc(=O)[nH]1` (single isomer, unassigned) [Example 4, (S)- or (R)-6-(2-(1-(2-fluoro-4-(trifluoromethyl)phenyl)ethyl)-2H-1,2,3-triazol-4-yl)-2-metylpyrimidin-4(3H)-one], the pKi at human PDE2A1 was 5.99. Still for that read-out and setting: under `Cc1nc(-c2nnn([C@H](C)c3ccc(C(F)(F)F)cc3Cl)c2C)cc(=O)[nH]1` (single isomer, unassigned) [Example 43] stands 8.34.

What is called pKi is −log10 of the Ki, conventionally taken in molar units.
